Measurements: patent US8178505B2, “Method of predicting and reducing risk of metastasis of breast cancer to lung” (Sloan-Kettering Institute for Cancer Research, priority 2005, dated 2012)

Columns and labels:
LM2 cells = test: Lung metastasis formation after tail vein injection of LM2 cells, pharmacological targeting, bioluminescence imaging; type: in vivo, Balb/c nude mice; conditions: preliminary results; drugs individually or in combination; FIGS. 2A and 2B
Experimental: Animal studies. All animal work was done in accordance with an IACUC approved protocol. Four to 6-week-old Balb/c nude mice (NCI) were used for all xenografting studies. For lung metastasis formation, 2×10^5 viable cells were washed and harvested in PBS and subsequently injected into the lateral tail vein in a volume of 0.1 mL. Endpoint assays were conducted at 15 weeks post-injection unless significant morbidity required that the mouse be sacrificed earlier. […] Mice were imaged for luciferase activity immediately after injection to exclude any that were not successfully xenografted.
Bioluminescent imaging and analysis. Mice were anesthetized and retro-orbitally injected with 1.5 mg of D-luciferin (15 mg/mL in PBS). Imaging was completed between 2-5 minutes post-injection using a Xenogen IVIS system coupled to Living Image acquisition and analysis software (Xenogen). For BLI plots, photon flux was calculated for each mouse using a rectangular region of interest (ROI) encompassing the thorax of the mouse in a prone position.

malignant cell lines = conditions: in culture; cited from earlier work
MMP-1, 3, 9, 10 and 11 = conditions: cited from earlier work

Row | SMILES | preventing lung metastasis (LM2 cells) | differentiation and growth of malignant cell lines (malignant cell lines) | production of MMP-1, 3, 9, 10 and 11 (MMP-1, 3, 9, 10 and 11; by inhibiting PKC) | direct effect on activity of MMPs (MMP-1, 3, 9, 10 and 11)
1 | CNC(=O)[C@H](Cc1c[nH]c2ccccc12)NC(=O)[C@@H](CC(=O)NO)CC(C)C [GM-6001, Ilomastat] | findings similar to those obtained using genetic knockdowns |  |  | 
2 | CCC/C=C/C=C/C(=O)O[C@H]1/C(=C/C(=O)OC)C[C@H]2C[C@H]([C@@H](C)O)OC(=O)C[C@H](O)C[C@@H]3C[C@H](OC(C)=O)C(C)(C)[C@](O)(C[C@@H]4C/C(=C/C(=O)OC)C[C@H](/C=C/C(C)(C)[C@]1(O)O2)O4)O3 [bryostatin-1] |  | induce differentiation and halt the growth of several malignant cell lines | can inhibit the production of MMP-1, 3, 9, 10 and 11 | does not directly affect the activity of MMPs
